Assay results published in PubChem BioAssay AID248 (DTP/NCI, 2004).
Values joined by “and” are separate entries in the source; they are usually repeats but may differ in a detail not shown here. Equal entries are not always repeated. Toxic doses and inconclusive results are not listed. No stated cut-off is given here; in the data, active means T/C of 150% or more; inactive means T/C below 125%.

System: L1210 leukemia ip in BDF1 mice, survival T/C
Assay: NCI In Vivo Anticancer Drug Screen. Data for tumor model L1210 Leukemia (intraperitoneal) in B6D2F1 (BDF1) mice
Conditions: endpoint: mean survival time, higher = longer survival
Description: The antitumor activity of compounds was measured in mice bearing transplantable tumors. Survival or tumor size were measured and the results are expressed as the measurement made in the treated group (T) divided by the measurement made in the vehicle treated control group (C). The tumor model used in this assay is L1210 Leukemia (intraperitoneal) in B6D2F1 (BDF1) mice

[1] = dose: 100.0 mg/kg/injection, schedule: Q01DX009 (ip), vehicle: Klucel (hydroxypropylcellulose) (HPC)
[2] = dose: 100.0 mg/kg/injection, schedule: Q04DX003 (ip), vehicle: Klucel (hydroxypropylcellulose) (HPC)
[3] = dose: 200.0 mg/kg/injection, schedule: Q01DX009 (ip), vehicle: Klucel (hydroxypropylcellulose) (HPC)
[4] = dose: 200.0 mg/kg/injection, schedule: Q04DX003 (ip), vehicle: Klucel (hydroxypropylcellulose) (HPC)
[5] = dose: 400.0 mg/kg/injection, schedule: Q04DX003 (ip), vehicle: Klucel (hydroxypropylcellulose) (HPC)
[6] = dose: 200.0 mg/kg/injection, schedule: Q04DX002 (ip), vehicle: Klucel (hydroxypropylcellulose) (HPC)
[7] = dose: 100.0 mg/kg/injection, schedule: Q04DX002 (ip), vehicle: Klucel (hydroxypropylcellulose) (HPC)
[8] = dose: 400.0 mg/kg/injection, schedule: Q04DX002 (ip), vehicle: Klucel (hydroxypropylcellulose) (HPC)
[9] = dose: 100.0 mg/kg/injection, schedule: Q01DX009 (ip), vehicle: other
[10] = dose: 200.0 mg/kg/injection, schedule: Q01DX009 (ip), vehicle: other
[11] = dose: 400.0 mg/kg/injection, schedule: Q01DX009 (ip), vehicle: other
[12] = dose: 100.0 mg/kg/injection, schedule: Q01DX001 (ip), vehicle: other
[13] = dose: 200.0 mg/kg/injection, schedule: Q01DX001 (ip), vehicle: other
[14] = dose: 400.0 mg/kg/injection, schedule: Q01DX001 (ip), vehicle: other

Measured: T/C

CC(=O)Nc1ccc(OC(=O)Nc2ccc(Cl)c([N+](=O)[O-])c2)cc1
inactive: [1] 97 % of control | [2] 112 % of control | [3] 104 % of control | [4] 97 % of control | dose: 400.0 mg/kg/injection, schedule: Q01DX009 (ip), vehicle: Klucel (hydroxypropylcellulose) (HPC) 93 % of control | [5] 92 % of control

CCN(CC)CCSC(=S)N1c2ccccc2Sc2ccccc21
inactive: dose: 17.5 mg/kg/injection, schedule: Q01DX009 (ip), vehicle: saline 90 % of control | dose: 17.5 mg/kg/injection, schedule: Q04DX003 (ip), vehicle: Klucel (hydroxypropylcellulose) (HPC) 102 % of control | dose: 35.0 mg/kg/injection, schedule: Q01DX009 (ip), vehicle: saline 96 % of control | dose: 35.0 mg/kg/injection, schedule: Q04DX003 (ip), vehicle: Klucel (hydroxypropylcellulose) (HPC) 93 % of control | dose: 70.0 mg/kg/injection, schedule: Q01DX009 (ip), vehicle: saline 87 % of control | dose: 70.0 mg/kg/injection, schedule: Q04DX003 (ip), vehicle: Klucel (hydroxypropylcellulose) (HPC) 96 % of control | dose: 140.0 mg/kg/injection, schedule: Q01DX009 (ip), vehicle: saline 91 % of control | dose: 140.0 mg/kg/injection, schedule: Q04DX003 (ip), vehicle: Klucel (hydroxypropylcellulose) (HPC) 98 % of control | dose: 280.0 mg/kg/injection, schedule: Q04DX003 (ip), vehicle: Klucel (hydroxypropylcellulose) (HPC) 95 % of control

ClC1c2ccccc2-c2nsnc2C1Cl (stereo not drawn)
inactive: dose: 50.0 mg/kg/injection, schedule: Q01DX009 (ip), vehicle: Klucel (hydroxypropylcellulose) (HPC) 94 % of control | [1] 87 % of control | [3] 91 % of control | [6] 92 % of control

O=C(NNc1ccccc1)C(O)C(O)C(O)C(O)C(O)CO (stereo not drawn)
inactive: [7] 98 % of control | [6] 95 % of control | [8] 91 % of control

CCCCCCCCCCCCCCCCCCNC(=O)Nc1cc(C(C)C)ccc1C
inactive: [9] 86 % of control | [10] 88 % of control | [11] 99 % of control and 100 % of control

O=[N+]([O-])c1ccc(Oc2ccc(Br)cc2)cc1
inactive: [2] 104 % of control | [4] 104 % of control | [5] 93 % of control

O=C(c1cccc([N+](=O)[O-])c1)c1ccc(O)cc1O
inactive: [12] 103 % of control | dose: 100.0 mg/kg/injection, schedule: Q04DX003 (ip), vehicle: other 103 % of control | [13] 95 % of control | dose: 200.0 mg/kg/injection, schedule: Q04DX003 (ip), vehicle: other 100 % of control | [14] 95 % of control | dose: 400.0 mg/kg/injection, schedule: Q04DX003 (ip), vehicle: other 100 % of control

O=[N+]([O-])/C=C\c1cc2ccccc2c2ccccc12
inactive: dose: 100.0 mg/kg/injection, schedule: Q01DX001 (ip), vehicle: carboxymethylcellulose (CMC) 94 % of control | dose: 200.0 mg/kg/injection, schedule: Q01DX001 (ip), vehicle: carboxymethylcellulose (CMC) 94 % of control | dose: 400.0 mg/kg/injection, schedule: Q01DX001 (ip), vehicle: carboxymethylcellulose (CMC) 94 % of control

O=[N+]([O-])c1cccc(/C=N/N(c2ccccc2)C2CCS(=O)(=O)C2)c1 (stereo not drawn)
inactive: [7] 95 % of control | [6] 106 % of control | [8] 103 % of control

O=C(NC(=S)Nc1ccccn1)c1ccccc1
inactive: dose: 25.0 mg/kg/injection, schedule: Q04DX002 (ip), vehicle: other 102 % of control | dose: 50.0 mg/kg/injection, schedule: Q04DX002 (ip), vehicle: other 100 % of control | dose: 100.0 mg/kg/injection, schedule: Q04DX002 (ip), vehicle: other 105 % of control | dose: 200.0 mg/kg/injection, schedule: Q04DX002 (ip), vehicle: other 86 % of control

c1ccc2c(c1)nnn1c3ccccc3nc21
inactive: dose: 25.0 mg/kg/injection, schedule: Q04DX003 (ip), vehicle: Klucel (hydroxypropylcellulose) (HPC) 102 % of control | dose: 50.0 mg/kg/injection, schedule: Q04DX003 (ip), vehicle: Klucel (hydroxypropylcellulose) (HPC) 94 % of control | [12] 97 % of control | [9] 101 % of control | [2] 104 % of control | [13] 108 % of control and 92 % of control | [10] 86 % of control | [14] 95 % of control and 92 % of control | [11] 90 % of control

COC(=O)c1ccccc1C(=O)c1ccccc1
inactive: dose: 100.0 mg/kg/injection, schedule: Q04DX003 (ip), vehicle: carboxymethylcellulose (CMC) 101 % of control | dose: 200.0 mg/kg/injection, schedule: Q04DX003 (ip), vehicle: carboxymethylcellulose (CMC) 102 % of control | dose: 400.0 mg/kg/injection, schedule: Q04DX003 (ip), vehicle: carboxymethylcellulose (CMC) 96 % of control

COC(=O)C(C)=C1CCCCC1
inactive: dose: 100.0 mg/kg/injection, schedule: Q01DX009 (ip), vehicle: saline 106 % of control | dose: 100.0 mg/kg/injection, schedule: Q04DX003 (ip), vehicle: saline 93 % of control | dose: 200.0 mg/kg/injection, schedule: Q01DX009 (ip), vehicle: saline 96 % of control | dose: 200.0 mg/kg/injection, schedule: Q04DX003 (ip), vehicle: saline 98 % of control | dose: 400.0 mg/kg/injection, schedule: Q01DX009 (ip), vehicle: saline 96 % of control | dose: 400.0 mg/kg/injection, schedule: Q04DX003 (ip), vehicle: saline 95 % of control

Cc1cccc2ccc3cccc(C)c3c12
inactive: dose: 100.0 mg/kg/injection, schedule: Q01DX001 (ip), vehicle: saline 98 % of control | dose: 200.0 mg/kg/injection, schedule: Q01DX001 (ip), vehicle: saline 92 % of control | dose: 400.0 mg/kg/injection, schedule: Q01DX001 (ip), vehicle: saline 95 % of control

CCS(=O)(=O)C(S(=O)(=O)CC)S(=O)(=O)CC
inactive: dose: 100.0 mg/kg/injection, schedule: Q01DX001 (ip), vehicle: Klucel (hydroxypropylcellulose) (HPC) 102 % of control | dose: 200.0 mg/kg/injection, schedule: Q01DX001 (ip), vehicle: Klucel (hydroxypropylcellulose) (HPC) 91 % of control | dose: 400.0 mg/kg/injection, schedule: Q01DX001 (ip), vehicle: Klucel (hydroxypropylcellulose) (HPC) 96 % of control
